Two compounds from patent US20240189287A1, “PERIPHERALLY RESTRICTED CB1 RECEPTOR BLOCKERS AND USES THEREOF” (BIONANOSIM (BNS) LTD, priority 2021, published 2024) can be followed below.

Read-outs that look alike come from different tables or passages of the source.

One data set deals with P-gp (MDR1). Kind of data set: MDR1-MDCK II cell permeation assay (bi-directional permeability, P-gp efflux). It is filed as in vitro ADME. The note with it: dog, MDCK-MDR1, pH 7.4; 2 μM, A to B, 2.5 hours. In outline: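 Compounds at 2 μM (DMSO <1%) in HBSS with 10 mM Hepes, pH 7.4, were applied apically or basolaterally to MDR1-MDCKII monolayers. A-to-B and B-to-A transport was run in duplicate with or without 10 μM GF120918 for 2.5 h at 37° C, 5% CO2. Compounds were quantified by LC-MS/MS, and efflux ratios were determined.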

Another data set concerns the target CYP 1A2 (Homo sapiens (Human), UniProt P05177). Kind of data set: CYP inhibition in human liver microsomes. It is filed as in vitro ADME. Here is the method: (§1) To evaluate the in vitro CYP inhibition of BNS808 and BNS822, the compounds were tested in human liver microsomes that are rich in drug metabolizing enzymes, including CYPs 1A2, 2C9, 2C19, 2D6, 3A4.
Background: Liver microsomes are vesicles of endoplasmic reticulum, rich in cytochrome P450 enzymes.

A further data set has as its target CYP 2D6 (Homo sapiens (Human), UniProt P10635). Kind of data set: CYP inhibition in human liver microsomes. In kind it is in vitro ADME. Here is the method: as §1
For another data set, the target named is CYP3A4 (Homo sapiens (Human), UniProt P08684). Kind of data set: CYP inhibition in human liver microsomes. It is filed as in vitro ADME. The note with it: for IC50: fifth value column, read-out: IC50 (μM) CYP 3A4. Here is the method:
as §1

The target of a further data set is CYP2C9 (Homo sapiens (Human), UniProt P11712). Kind of data set: CYP inhibition in human liver microsomes. It is filed as in vitro ADME. How it is done: as §1
Sequence of CYP2C9 (P11712 whole entry): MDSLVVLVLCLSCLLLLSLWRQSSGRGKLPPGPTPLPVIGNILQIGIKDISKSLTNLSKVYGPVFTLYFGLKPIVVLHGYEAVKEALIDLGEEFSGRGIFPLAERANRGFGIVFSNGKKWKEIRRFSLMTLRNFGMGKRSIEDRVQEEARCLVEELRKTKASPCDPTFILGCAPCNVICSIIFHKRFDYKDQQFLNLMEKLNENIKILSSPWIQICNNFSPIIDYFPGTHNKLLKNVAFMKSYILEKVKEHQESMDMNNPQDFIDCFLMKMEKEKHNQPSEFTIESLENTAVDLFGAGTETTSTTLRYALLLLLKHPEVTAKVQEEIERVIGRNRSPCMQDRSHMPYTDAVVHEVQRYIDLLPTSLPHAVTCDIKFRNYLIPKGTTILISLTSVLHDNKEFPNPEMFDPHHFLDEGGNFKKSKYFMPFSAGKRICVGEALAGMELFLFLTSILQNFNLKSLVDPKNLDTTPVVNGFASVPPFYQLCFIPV
The next data set addresses CYP2C19 (Homo sapiens (Human), UniProt P33261). Kind of data set: CYP inhibition in human liver microsomes. It is filed as in vitro ADME. How it is done:
as §1

Data set [1] concerns C57Bl/6J mice. Kind of data set: Inhibition of HU210-induced hypomotility. The note with it: HU210 30 μg/kg IP 30 min after. In kind it is in vivo. From the text:
(§2) Locomotor activity: Locomotor activity was quantified by the number of disruptions of infrared XYZ beam arrays with a beam spacing of 0.25 cm in the Promethion High-Definition Behavioral Phenotyping System (Sable Instruments, Inc., Las Vegas, NV, USA).
(§3) The ability of BNS822 and BNS808 to induce CNS-mediated hyperactivity was further evaluated in a mouse model, using rimonabant (a brain penetrant CB1 receptor blocker) as a positive control. Mice (wild-type male C57Bl/6J) received a single dose of rimonabant (10 mg/kg IP), BNS822 (20 mg/kg PO) BNS 808 (1, 10 mg/kg PO) or vehicle; ambulatory activity was measured by the Promethion Metabolic System (Sable Instruments, Inc). In the same experimental scheme, BNS822, BNS808 and rimonabant were further studied regarding the potential to inhibit the hypomotility-induced by a CB1 receptor agonist, HU210, after a single dose of rimonabant (10 mg/kg IP), BNS822 (20 mg/kg PO) BNS808 (1, 10 mg/kg PO) or vehicle and a single dose of HU210 (30 μg/kg IP) 30 min after.

Another data set has as its system HepG2 Cells. Kind of data set: Cell Viability Assay in HepG2 Cells at 72 h. It is filed as cell-based, human. The note with it: Homo sapiens, HepG2, 72 h. Here is the method: The liver plays a central role in transforming and clearing chemicals, and therefore is susceptible to toxicity of these agents. BNS808, BNS822 and other selected compounds were tested in the HepG2 assay using […] to evaluate cytotoxicity.

In data set [2] the test system is C57Bl/6J mice. Kind of data set: CNS-mediated hyperactivity, locomotor activity (Promethion). In kind it is in vivo. As to conditions: wild-type male C57Bl/6J mice.
Text: as §2, §3

Data set [3] concerns the target CB1 receptor (Homo sapiens (Human), UniProt P21554). Kind of data set: CB1 receptor radioligand binding assay, membranes from human source. How it is done: (§4) Radioligand binding assays: Binding affinity was determined by a radioligand binding assay. The different BB8-conjugates binding to CB1 and CB2 receptors was assessed in competition displacement assays using [^3H]CP-55.940 as the radioligand and crude membranes from mouse brain for CB1 receptor and human kidney cells for CB2 receptor.
(§5) CB1 receptor binding assay: Mouse brain membranes were used as the source material for CB1 receptors. The displacement of specifically bound tritiated CP-55.940 from these membranes using a standard filtration assay was used to determine the Ki values for the test compounds. Briefly. 20 μg of protein was incubated for 1 h at 30° C. in the presence of 0.5 nM [^3H]CP-55,940 and various concentrations (10^−5M-10^−11M) of test compound/control, final volume of 1 mL. The incubation was terminated by rapid filtration and washing, and the amount of specifically bound [^3H]CP-55,940 was determined. Briefly, membranes with bound [^3H]CP-55,940 were separated and washed from free ligand by vacuum filtration, adsorbing the membrane onto a Whatman glass microfiber filter paper ([…], Cat #1821271). Finally, the Whatman filter paper with adsorbed membranes was cut and placed in scintillation liquid (Ultima Gold) for 1 h at 25° C. followed by a β counter reading of bound [^3H]CP-55,940 radioligand. All data were in triplicates with Ki values determined using GraphPad Prism 7.02 analysis software. […] In some cases, membranes from human source were used to determine CB1 receptor binding affinity.

Data set [4] deals with CB1 receptor (Mus musculus (Mouse), UniProt P47746). Kind of data set: CB1 receptor radioligand binding assay, [3H]CP-55,940 displacement, mouse brain membranes. How it is done:
as §4, §5

Sequence of CYP3A4 (P08684 whole entry): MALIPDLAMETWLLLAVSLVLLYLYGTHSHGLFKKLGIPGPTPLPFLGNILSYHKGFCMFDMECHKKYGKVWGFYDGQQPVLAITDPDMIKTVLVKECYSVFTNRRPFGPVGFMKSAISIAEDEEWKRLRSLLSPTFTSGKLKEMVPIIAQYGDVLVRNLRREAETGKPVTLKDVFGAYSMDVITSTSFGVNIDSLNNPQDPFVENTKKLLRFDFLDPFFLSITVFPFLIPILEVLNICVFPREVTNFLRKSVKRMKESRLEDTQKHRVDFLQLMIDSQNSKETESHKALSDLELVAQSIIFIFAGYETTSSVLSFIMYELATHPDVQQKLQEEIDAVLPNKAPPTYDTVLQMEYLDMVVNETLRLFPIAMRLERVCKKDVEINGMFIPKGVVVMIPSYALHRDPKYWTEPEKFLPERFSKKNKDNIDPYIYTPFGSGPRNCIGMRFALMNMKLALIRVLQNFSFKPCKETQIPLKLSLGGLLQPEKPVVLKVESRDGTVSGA
Sequence of CYP2C19 (P33261 whole entry): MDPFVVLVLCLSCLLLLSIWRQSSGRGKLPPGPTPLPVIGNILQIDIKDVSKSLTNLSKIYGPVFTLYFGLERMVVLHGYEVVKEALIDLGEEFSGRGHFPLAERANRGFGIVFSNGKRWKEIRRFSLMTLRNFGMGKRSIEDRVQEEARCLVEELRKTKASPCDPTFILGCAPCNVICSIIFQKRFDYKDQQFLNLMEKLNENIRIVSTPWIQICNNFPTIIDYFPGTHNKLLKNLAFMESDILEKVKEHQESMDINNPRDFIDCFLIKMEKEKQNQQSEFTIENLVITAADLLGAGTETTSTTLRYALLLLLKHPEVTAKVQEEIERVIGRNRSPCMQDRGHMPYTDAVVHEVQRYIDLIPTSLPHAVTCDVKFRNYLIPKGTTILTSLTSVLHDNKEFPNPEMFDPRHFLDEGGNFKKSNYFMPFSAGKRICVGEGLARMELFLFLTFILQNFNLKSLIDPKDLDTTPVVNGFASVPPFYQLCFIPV
Sequence of CYP 2D6 (P10635 whole entry): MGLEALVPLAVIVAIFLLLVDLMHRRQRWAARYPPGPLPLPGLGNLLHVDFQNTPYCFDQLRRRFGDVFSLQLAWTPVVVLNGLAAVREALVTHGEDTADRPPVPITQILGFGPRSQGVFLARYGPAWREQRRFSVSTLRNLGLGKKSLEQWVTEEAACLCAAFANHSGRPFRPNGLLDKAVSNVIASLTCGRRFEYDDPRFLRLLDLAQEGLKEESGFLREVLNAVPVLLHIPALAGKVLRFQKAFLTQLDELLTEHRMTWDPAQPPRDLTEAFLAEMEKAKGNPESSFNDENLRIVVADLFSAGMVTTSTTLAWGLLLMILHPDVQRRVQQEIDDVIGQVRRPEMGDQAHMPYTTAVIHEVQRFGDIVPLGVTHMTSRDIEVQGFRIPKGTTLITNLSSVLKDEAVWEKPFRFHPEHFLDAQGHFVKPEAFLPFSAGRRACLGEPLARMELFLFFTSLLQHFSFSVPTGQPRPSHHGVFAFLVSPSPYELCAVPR
Sequence of CYP 1A2 (P05177 whole entry): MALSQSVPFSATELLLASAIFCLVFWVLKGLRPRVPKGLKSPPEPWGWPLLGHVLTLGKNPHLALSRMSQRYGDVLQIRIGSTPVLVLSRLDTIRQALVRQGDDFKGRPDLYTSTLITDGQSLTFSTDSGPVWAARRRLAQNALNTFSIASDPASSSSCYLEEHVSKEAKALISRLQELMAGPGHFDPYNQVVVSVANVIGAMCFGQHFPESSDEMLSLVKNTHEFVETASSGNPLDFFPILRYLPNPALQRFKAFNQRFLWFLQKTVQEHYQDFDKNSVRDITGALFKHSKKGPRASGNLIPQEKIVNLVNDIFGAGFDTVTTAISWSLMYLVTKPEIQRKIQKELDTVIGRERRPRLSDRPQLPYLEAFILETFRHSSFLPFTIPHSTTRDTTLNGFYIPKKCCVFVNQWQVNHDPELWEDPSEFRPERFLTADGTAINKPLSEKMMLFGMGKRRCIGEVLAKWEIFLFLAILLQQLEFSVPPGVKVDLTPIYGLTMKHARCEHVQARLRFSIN
Sequence of CB1 receptor (Mus musculus (Mouse), UniProt P47746) (P47746 whole entry): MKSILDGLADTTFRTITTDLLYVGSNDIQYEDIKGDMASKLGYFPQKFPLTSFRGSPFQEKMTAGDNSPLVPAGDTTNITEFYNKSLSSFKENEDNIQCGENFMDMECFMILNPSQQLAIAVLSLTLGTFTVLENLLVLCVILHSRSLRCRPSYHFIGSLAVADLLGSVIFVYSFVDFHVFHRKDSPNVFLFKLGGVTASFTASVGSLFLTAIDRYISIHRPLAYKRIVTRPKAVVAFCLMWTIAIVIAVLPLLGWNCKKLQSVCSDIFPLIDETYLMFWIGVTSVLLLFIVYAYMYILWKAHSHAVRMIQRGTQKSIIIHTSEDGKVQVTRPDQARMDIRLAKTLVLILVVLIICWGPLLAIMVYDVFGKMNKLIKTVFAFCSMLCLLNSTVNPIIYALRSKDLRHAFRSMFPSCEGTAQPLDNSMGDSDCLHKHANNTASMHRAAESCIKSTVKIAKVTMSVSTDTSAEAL
Sequence of CB1 receptor (Homo sapiens (Human), UniProt P21554) (P21554 whole entry): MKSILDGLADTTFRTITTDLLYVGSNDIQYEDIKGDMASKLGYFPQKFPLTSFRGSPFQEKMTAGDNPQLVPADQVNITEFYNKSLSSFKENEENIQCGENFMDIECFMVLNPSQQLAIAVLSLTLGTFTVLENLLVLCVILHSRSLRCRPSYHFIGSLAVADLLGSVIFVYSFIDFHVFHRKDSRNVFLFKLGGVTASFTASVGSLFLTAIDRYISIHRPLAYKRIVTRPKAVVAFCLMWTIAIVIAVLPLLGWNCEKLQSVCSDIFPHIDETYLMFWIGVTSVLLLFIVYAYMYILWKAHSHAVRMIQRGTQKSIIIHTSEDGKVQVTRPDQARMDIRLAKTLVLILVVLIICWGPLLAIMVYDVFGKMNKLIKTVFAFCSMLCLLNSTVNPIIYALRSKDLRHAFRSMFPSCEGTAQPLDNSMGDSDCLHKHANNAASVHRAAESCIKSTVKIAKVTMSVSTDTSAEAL

In the data set on P-gp (MDR1), `O=S(=O)(NC1CCCOc2c1nn(-c1ccccc1Cl)c2-c1ccc(Cl)cc1)c1ccc(Cl)cc1` (centres unmarked) [BNS808, 4-chloro-N-[2-(2-chlorophenyl)-3-(4-chlorophenyl)-5,6,7,8-tetrahydrooxepino[3,2-c]pyrazol-8-yl]benzenesulfonamide] yielded a Papp at 2.5 h, 2 μM of 0.26 ×10⁻⁶ cm/s. Besides, the IC50 was > 50 µM at CYP 1A2; > 50 µM on CYP 2D6; 2.99 µM on CYP3A4; 8.33 µM at CYP2C9; 18 µM at CYP2C19; 26.2 µM in the data set on HepG2 Cells (read-out: Absolute IC50 (μM)). The IC50 with HepG2 Cells (read-out: Relative IC50 (μM)) came to 16.8 µM. At CYP3A4, the “inhibitor grade, CYP3A4(M)” value is “moderate inhibitor”. Also, the “inhibitor grade, CYP2C9” value on CYP2C9 (human liver microsomes) is “weak-moderate inhibitor”. In addition, at CYP2C19 (human liver microsomes), the “inhibitor grade, CYP2C19” value is reported as “weak-moderate inhibitor”. Moreover, the “effect on HU210-induced hypomotility” value with C57Bl/6J mice [1] (single dose 1, 10 mg/kg PO) is recorded as “apparent lack of effects”. Besides, in the data set with C57Bl/6J mice [2] (single dose 1, 10 mg/kg PO), the “locomotor activity (CNS-mediated hyperactivity)” value was “no locomotor effects”. At CB1 receptor [3], the affinity, expressed as Ki, was 0.0007 µM.
As for `Cc1ccc(C)c(OCCCC(C)(C)C(=O)NC2CCCOc3c2nn(-c2ccccc2Cl)c3-c2ccc(Cl)cc2)c1` (centres unmarked) [BNS822, N-[2-(2-chlorophenyl)-3-(4-chlorophenyl)-5,6,7,8-tetrahydrooxepino[3,2-c]pyrazol-8-yl]-5-(2,5-dimethylphenoxy)-2,2-dimethyl-pentanamide], the IC50 on CYP 1A2 (human liver microsomes, isozyme order of b227, read-out: IC50 (μM) CYP 1A2) was > 50 µM; on CYP 2D6 (human liver microsomes, read-out: IC50 (μM) CYP 2D6) it was > 50 µM; on CYP3A4, > 50 µM; at CYP2C9 (human liver microsomes, read-out: IC50 (μM) CYP 2C9) it was 8.52 µM; at CYP2C19 (human liver microsomes, read-out: IC50 (μM) CYP 2C19), > 50 µM; in the data set with HepG2 Cells (read-out: Absolute IC50) it was > 100 µM. In addition, in the data set with HepG2 Cells (read-out: Relative IC50), the IC50 was > 100 µM. Besides, on CYP2C9 (human liver microsomes), the “inhibitor grade, CYP2C9” value is “weak-moderate inhibitor”. In the data set with C57Bl/6J mice [1] (single dose 20 mg/kg PO), the “effect on HU210-induced hypomotility” value was “apparent lack of effects”. The “locomotor activity (CNS-mediated hyperactivity)” value in the data set with C57Bl/6J mice [2] (single dose 20 mg/kg PO) is “no locomotor effects”. Moreover, the “affinity / potency against the CB1 receptor (in words)” value on CB1 receptor [4] (CB1 receptor (mouse/human)) is “high potency”. The Ki at CB1 receptor [4] (mouse (m) CB1 receptor, read-out: CB1R Ki (nM) (m)) came out at 1.4 nM.

In general, Papp refers to the rate of passage across a membrane or cell layer, normalised by area and donor concentration. Read a low Papp as slow passage. By IC50 is commonly meant the concentration needed to halve the response being measured. A word on the Ki: it is a dissociation constant, usually derived from enzyme kinetics or from competition with a known ligand.
